Consider 6 compounds from patent US20070265289A1, “2-Aminopyrimidine Derivative” (priority 2004, published 2007).

By IC50 is commonly meant the midpoint of a concentration-inhibition curve.

One test concerns the target T1, rat IKK2 (Rattus norvegicus, UniProt Q9QY78).
T1 construct: ORF of rat IKK2 (GenBank AF115282) was cloned from a rat pancreas cDNA library; FLAG; made in house; host or cells: Sf9 insect cells
T1 sequence (Q9QY78 1-757): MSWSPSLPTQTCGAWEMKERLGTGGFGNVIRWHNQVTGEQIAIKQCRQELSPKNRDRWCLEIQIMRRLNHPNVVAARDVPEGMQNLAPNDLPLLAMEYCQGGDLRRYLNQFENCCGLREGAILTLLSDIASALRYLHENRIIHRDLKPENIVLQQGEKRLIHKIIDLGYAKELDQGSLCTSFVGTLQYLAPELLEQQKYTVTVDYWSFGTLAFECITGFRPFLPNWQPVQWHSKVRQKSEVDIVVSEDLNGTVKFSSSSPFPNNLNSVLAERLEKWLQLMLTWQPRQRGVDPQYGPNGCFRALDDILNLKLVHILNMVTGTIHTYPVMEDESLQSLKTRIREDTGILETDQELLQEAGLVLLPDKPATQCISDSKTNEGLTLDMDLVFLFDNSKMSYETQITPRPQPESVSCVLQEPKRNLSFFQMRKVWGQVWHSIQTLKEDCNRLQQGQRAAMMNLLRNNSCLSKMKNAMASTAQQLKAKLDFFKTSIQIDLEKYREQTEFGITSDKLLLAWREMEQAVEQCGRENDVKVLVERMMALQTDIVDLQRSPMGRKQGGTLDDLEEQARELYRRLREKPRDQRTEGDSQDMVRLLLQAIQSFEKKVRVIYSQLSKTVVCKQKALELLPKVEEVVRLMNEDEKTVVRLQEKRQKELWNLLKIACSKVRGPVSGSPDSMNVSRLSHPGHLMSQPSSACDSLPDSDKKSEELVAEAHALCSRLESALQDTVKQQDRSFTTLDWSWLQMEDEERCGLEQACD
Kind of test: Evaluation of rat IKK2 enzyme inhibition. In kind it is biochemical. The following applies: 0.5 μM ATP, probit analysis; read-out: IC50, rat IKK2 enzyme activity-inhibitory effect. The method, then:
(1) Evaluation of Rat IKK2 Enzyme Inhibition:
ORF of rat IKK2 (GenBank AF115282) was cloned from a rat pancreas cDNA library, and with a FLAG-tag attached thereto, it was expressed in an Sf9 cell line. The cells were dissolved in a cytolytic solution (50 mM Tris-HCl pH 7.5, 0.15M NaCl, 1% NP-40, 10% glycerol, 1 mM EDTA, 1 mM EGTA pH 7.5, 1 mM Na3VO4, 5 mM p-nitrophenylphosphate, 10 mM O-glycerophosphate, 1 mM DTT, 1 mM PMSF, 10 μg/ml leupeptin, 10 μg/ml aprotinin (by Sigma)) to prepare a large amount of an cell extract, which was then purified on an anti-FLAG M2 antibody (by Sigma). This experimental operation was carried out in accordance with gene manipulation experiment manuals such as known methods (Sambrook, J. et al, Molecular Cloning-A Laboratory Manual, Cold Spring Harbor laboratory, NY, 1989) or the instructions attached to the reagents. The purified rat IKK2 was stored in an enzyme preservative (20 mM Tris-HCl pH 7.5, 10% glycerol, 12.5 mM β-glycerophosphate, 0.5 mM EDTA, 0.5 mM EGTA, 0.05% Brij35, 1 mM DTT, 1 mM PMSF (by Sigma)) at −80° C.
The purified rat IKK2, 1× enzymatic reaction buffer (20 mM Tris-HCl pH 7.5, 12.5 mM O-glycerophosphate, 20 mM MgCl2, 0.1 mM DTT), 0.01% BSA (by Sigma), 0.5 μM ATP, 0.2 μM biotinated substrate peptide (18th to 49th amino acid residues of rat I-kappa B alpha (GenBank Q63746)) and a test compound dissolved in DMSO were added to a 384-well plate (catalogue No. 3677, by Corning) to be 10 μl in total therein, and left at room temperature for 90 minutes. Next, […] of a reaction stopper (100 mM Hepse pH 8, 0.01% BSA, 0.8 M KF, 50 mM EDTA pH 8, 1% Triton X-100, europium cryptate-labeled anti-phosphorylation I-kappa B alpha-antibody (by Santa Cru), streptoavidin-labeled XL665 (by Nihon Schering)) was added thereto, kept warmed for 30 minutes, and then assayed with DISCOVERY (by Perkin-Elmer). The rat IKK2 enzyme activity-inhibitory effect of the tested compound was obtained according to the following formula. Every dose was tested independently three times. Inhibition (%) by Test Compound=((mean value with rat IKK2 but not with test compound)−(mean value with both test compound and rat IKK2))/((mean value with rat IKK2 but not with test compound)−(mean value not with rat IKK2))×100.

Another test deals with carrageenan paw edema. The experiment in a line: Rat carrageenan paw edema model. In kind it is in vivo, Sprague-Dawley male rats. The following applies: for edema inhibitory activity: 30 mg/kg oral administration, 3 hours after carrageenan. The method, then: (3) Rat Carrageenan Paw Edema Model:
After their body weight was measured, Sprague-Dawley male rats (6-10 weeks age, male, by Nippon SLC) were divided into groups of 5 rats each in such a manner that the mean body weight of each group could be on the same level. Next, a test compound was orally administered to the rats (but 10 mL/kg of solvent alone was administered to those of the control group). 30 minutes after the test compound administration thereto, 100 μL of a 1% carrageenan (by Sigma Aldrich Japan) solution was subcutaneously injected to the sub-plantar of the right foot of each rat to induce inflammation. 3 hours after the inflammation induction, the rats were killed by deep anesthetization with ether, and their tissue below the right and left ankles was cut and collected and its weight was measured.
The test result was obtained as follows: In every rat, the weight of the left foot with no carrageenan injection thereto was subtracted from the weight of the right foot with carrageenan injection thereto, 3 hours after the carrageenan injection, thereby calculating the weight difference (g) therebetween. The edema inhibition in the test compound-administered rats was calculated relative to the mean value of the rats of the control group. For multi-group comparison between the control group and the test compound administration group, employed was a Dunnett multiple comparison test, in which the P value less than 0.05 was considered as statistical significance. All the above statistical analyses were carried out, using SAS.
(In the carrageenan paw model, swelling and tenderness develop within hours.)

Test [1] relates to collagen-induced rheumatoid arthritis. Kind of test: Rat collagen-induced rheumatoid arthritis model. The test is classed as in vivo. The following applies: oral administration at a dose of 30 mg/kg, 14 days. The protocol:
(4) Collagen-Induced Rheumatoid Arthritis Model:
The effect to rat collagen-induced rheumatoid arthritis was evaluated according to a partial modification of the method described in The Japanese Journal of Pharmacology, 1997 August; 74(4): 313-22.
10 mL of a 1 mg/mL solution of bovine-derived type 2 collagen (by Cosmobio) diluted three-fold with acetic acid was mixed with adjuvant incomplete Freund (by Difco) in 1/1, and emulsified to give an emulsion for sensitization. The tail root of each rat in a control group and in a test compound administration group was disinfected with ethanol, and collagen-sensitized through intradermal injection of 0.4 mL of the emulsion containing […] of collagen thereinto to thereby induce rheumatoid arthritis. The rats in the non-sensitized group were not treated for collagen sensitization. To the rats of the control group, 10 mL/kg of 0.5% methyl cellulose was orally administered. To the rats of the test compound administration group, a compound of the invention was orally administered. One week after the sensitization, the administration continued for 14 days. The degree of inflammation was judged by measuring the rheumatoid arthritis scores of the four limbs of each rat (scoring). Briefly, the symptom of each articulation was visually grouped into the following four ranks (0: normal, 1: flare or light swelling, 2: middle swelling, 3: heavy swelling or joint ankylosis); and the total of the numerical data of the four limbs is referred to as the rheumatoid arthritis score. The scoring was carried out every other day after the development of rheumatoid arthritis. The cumulative rheumatoid arthritis score was calculated by totaling the rheumatoid arthritis scores on every scoring date of every individual. Relative to the mean cumulative rheumatoid arthritis score of rats of the control group, the inhibition by the those of the test compound administration group was calculated, and the mean value of the data was shown.

Another test concerns TNF-α production. Kind of test: Mouse LPS-induced TNF-α production model. The test is classed as in vivo, Balb/c female mice. The following applies: Mus musculus, po, 1.5 h, oral administration of 30 mg/kg, 60 minutes before LPS, blood 90 minutes after LPS; read-out: inhibition of plasma TNF-α. The method, then: (2) Mouse LPS-Induced TNF-α Production Model:
6 weeks old Balb/c female mice were placed into two groups, a control group and a test compound administration group. A solution containing 10 μg/mouse of LPS in 0.9% physiological salt was administered by intraperitoneal injection into the control mice. 60 minutes before the LPS administration, a compound of the invention was orally administered to the mice of the test compound administration group. Under anesthesia with diethyl ether, blood was collected from the posterior venous cavity of the mice of both the test compound administration group and the control group at 90 minutes after the LPS administration, and treated with heparin, and the plasma was separated from it through centrifugation at 10000 rpm at 4° C. for 10 minutes, and then diluted two-fold with PBS (pH 7.4).
The TNF-α concentration in the sample was determined with an ELISA kit (by Pharmingen, San Diego, Calif.). The inhibition by the mice of the test compound administration group relative to the mean inhibition by those of the control group was calculated as a mean value thereof.
The inhibition in oral administration of 30 mg/kg of compound (I) is shown below.

Bounds are passed on as bounds.

As for `Cc1ccc(-c2cc(C3CCCNC3)nc(N)n2)c(O)c1` (stereo not drawn) [Example 21], the IC50 on rat IKK2 was no more than 500 nM. The compound further came in with an edema inhibitory activity with carrageenan paw edema of 30%.

Turning to `CCc1ccc(O)c(-c2cc(C3CCCNC3)nc(N)n2)c1` (stereo not drawn) [Example 23], the IC50 at rat IKK2 is no more than 500 nM. The same compound registered an edema inhibitory activity in the test on carrageenan paw edema of 50%.

In the case of `Nc1nc(-c2c(O)cccc2OCC2CC2)cc(C2CCCNC2)n1` (stereo not drawn) [Example 37], the “inhibition of cumulative rheumatoid arthritis score” value in test [1] was roughly 100%. Moreover, on rat IKK2, the IC50 is no more than 500 nM.

Turning to `Nc1nc(-c2c(O)cccc2OCC2CCC2)cc(C2CCCNC2)n1` (stereo not drawn) [Example 85], the “inhibition of cumulative rheumatoid arthritis score” value in test [1] is roughly 100%. The IC50 on rat IKK2 was no more than 500 nM. Moreover, the inhibition in vivo at 30 mg/kg in the test on TNF-α production was found to be 85%.

Take `Nc1nc(-c2c(O)cccc2OCC2CCCC2)cc(C2CCCNC2)n1` (stereo not drawn) [Example 92]: in test [1], the “inhibition of cumulative rheumatoid arthritis score” value was roughly 100%. Also, on rat IKK2, the 50% inhibitory concentration (IC50) was no more than 500 nM.

`CN(Cc1cnc2nc(N)nc(N)c2n1)c1ccc(C(=O)N[C@@H](CCC(=O)O)C(=O)O)cc1` [Methotrexate, reference compound]: the “effect on carrageenan paw edema” value with carrageenan paw edema (dose not given) is recorded as “did not exhibit an effect”.
